System: primary rat HSCs
Assay: Spreading and survival after serum withdrawal, phase contrast microscopy
Format: cell-based
Details: within 24 h; medium lacking FBS; 30 μg/ml collagen; three independent experiments
Experimental: Activated HSC (third passage) were serum starved for 24 h in standard medium without FBS (starving medium), followed by dissociation with 500 μl 0.05% trypsin-EDTA (Biochrom, Berlin, Germany) and neutralization with 30 ml starving medium containing 1 g/l soybean trypsin inhibitor and 1 g/l ovalbumin. Alternatively, cells were scraped carefully with a cell-scraper (Costar, Cambridge, MA, USA) to exclude any potential effect of trypsin. […] For quantification of spreading, cells that had attached were counted 12 hours after plating and spreading efficiency was determined as percentage of plated cells in each group. De-novo DNA synthesis and apoptosis were assessed by morphological criteria, Cell death detection ELISA and FACS analysis as described below. […] After blocking the cells 1h with DMEM+1% FBS, the cells were incubated with primary antibodies against a-actin (Sigma-Aldrich, Taufkirchen, Germany, #A2547; dilution 1:200) and GFAP (Sigma-Aldrich, #G9269; dilution 1:20) followed by a washing step with PBS and the incubation with fluorescence-labeled secondary antibodies (Alexa Fluor 546 & Alexa Fluor 488, Molecular Probes, Eugene, USA, #A11030 & #A11034; dilution 1:100). […]

Substance: CVI: Human collagen VI isolated from placentas by pepsin digestion; triple helical, soluble
- suppression of growth factor withdrawal-induced apoptosis (attachment, cell shrinkage): potently suppressed

From PMC8412337, “Alpha-single chains of collagen type VI inhibit the fibrogenic effects of triple helical collagen VI in hepatic stellate cells” (PLoS ONE, 2021)
